Reference: patent publication US4912107A, “Pyrrolocarbazole derivatives, compositions containing them, and methods for using them” (Goedecke Aktiengesellschaft, priority 1988, dated 1990)

Molecular target: protein kinase C
Experiment: enzyme assay of protein kinase C activated with phosphatidylserine and diacylglycerol
Assay type: biochemical
Conditions: protein kinase C activated with phosphatidylserine and iacylglycerol; according to EP-OS 0 255 126; read-out: concentration giving 50% inhibition of protein kinase C
Experimental: Compounds of the present invention are potent inhibitors of protein kinases, such as protein kinase C. […] The experiment was carried out according to EP-OS 0 255 126 (inhibition of protein kinase C).

IC50: 580 nM
Structure (SMILES): CCn1c2ccccc2c2c3c(c(-c4ccccc4Cl)cc21)C(=O)NC3=O [Example 2a, 4-(2-Chlorophenyl)-6-ethyl-1,2,3,6-tetrahydro-1,3-dioxopyrrolo[3,4-c]carbazole]
